Experimental data reported in ChEMBL document CHEMBL4507318, “Data for DCP probe BAY-985” (2021).
Activity calls are given as the source filed them. No cut-off for these calls is given here.

Columns and labels:
[1] = molecular target: Activin receptor type-1-like (Homo sapiens) (UniProt P37023)
[2] = molecular target: Calcium/calmodulin-dependent protein kinase kinase 1 (Homo sapiens) (UniProt Q8N5S9)
[3] = molecular target: Cyclin-dependent kinase 11A (Homo sapiens) (UniProt Q9UQ88)
[4] = molecular target: Cyclin-dependent kinase 9 (Homo sapiens) (UniProt P50750)
[5] = molecular target: Dual specificity protein kinase CLK1 (Homo sapiens) (UniProt P49759)
Dual specificity protein kinase CLK1 (Homo sapiens), sequence (P49759 whole entry, looked up): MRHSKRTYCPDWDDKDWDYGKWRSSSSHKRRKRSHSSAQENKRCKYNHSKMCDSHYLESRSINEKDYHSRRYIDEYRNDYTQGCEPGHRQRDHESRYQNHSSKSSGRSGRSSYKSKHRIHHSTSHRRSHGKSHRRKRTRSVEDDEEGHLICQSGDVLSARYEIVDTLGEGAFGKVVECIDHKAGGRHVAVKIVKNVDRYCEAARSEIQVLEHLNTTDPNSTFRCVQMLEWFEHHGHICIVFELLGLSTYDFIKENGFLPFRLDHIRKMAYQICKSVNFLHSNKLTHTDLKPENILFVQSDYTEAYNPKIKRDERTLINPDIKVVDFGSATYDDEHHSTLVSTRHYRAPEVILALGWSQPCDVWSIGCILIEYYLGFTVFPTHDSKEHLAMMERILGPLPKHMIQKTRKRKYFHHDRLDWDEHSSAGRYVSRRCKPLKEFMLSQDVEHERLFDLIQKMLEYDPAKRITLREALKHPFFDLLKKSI

[6] = molecular target: Serine/threonine-protein kinase DCLK3 (Homo sapiens) (UniProt Q9C098)
[7] = molecular target: Receptor tyrosine-protein kinase erbB-2 (Homo sapiens) (UniProt P04626)
Receptor tyrosine-protein kinase erbB-2 (Homo sapiens), sequence (P04626 whole entry, the tested form may be a part): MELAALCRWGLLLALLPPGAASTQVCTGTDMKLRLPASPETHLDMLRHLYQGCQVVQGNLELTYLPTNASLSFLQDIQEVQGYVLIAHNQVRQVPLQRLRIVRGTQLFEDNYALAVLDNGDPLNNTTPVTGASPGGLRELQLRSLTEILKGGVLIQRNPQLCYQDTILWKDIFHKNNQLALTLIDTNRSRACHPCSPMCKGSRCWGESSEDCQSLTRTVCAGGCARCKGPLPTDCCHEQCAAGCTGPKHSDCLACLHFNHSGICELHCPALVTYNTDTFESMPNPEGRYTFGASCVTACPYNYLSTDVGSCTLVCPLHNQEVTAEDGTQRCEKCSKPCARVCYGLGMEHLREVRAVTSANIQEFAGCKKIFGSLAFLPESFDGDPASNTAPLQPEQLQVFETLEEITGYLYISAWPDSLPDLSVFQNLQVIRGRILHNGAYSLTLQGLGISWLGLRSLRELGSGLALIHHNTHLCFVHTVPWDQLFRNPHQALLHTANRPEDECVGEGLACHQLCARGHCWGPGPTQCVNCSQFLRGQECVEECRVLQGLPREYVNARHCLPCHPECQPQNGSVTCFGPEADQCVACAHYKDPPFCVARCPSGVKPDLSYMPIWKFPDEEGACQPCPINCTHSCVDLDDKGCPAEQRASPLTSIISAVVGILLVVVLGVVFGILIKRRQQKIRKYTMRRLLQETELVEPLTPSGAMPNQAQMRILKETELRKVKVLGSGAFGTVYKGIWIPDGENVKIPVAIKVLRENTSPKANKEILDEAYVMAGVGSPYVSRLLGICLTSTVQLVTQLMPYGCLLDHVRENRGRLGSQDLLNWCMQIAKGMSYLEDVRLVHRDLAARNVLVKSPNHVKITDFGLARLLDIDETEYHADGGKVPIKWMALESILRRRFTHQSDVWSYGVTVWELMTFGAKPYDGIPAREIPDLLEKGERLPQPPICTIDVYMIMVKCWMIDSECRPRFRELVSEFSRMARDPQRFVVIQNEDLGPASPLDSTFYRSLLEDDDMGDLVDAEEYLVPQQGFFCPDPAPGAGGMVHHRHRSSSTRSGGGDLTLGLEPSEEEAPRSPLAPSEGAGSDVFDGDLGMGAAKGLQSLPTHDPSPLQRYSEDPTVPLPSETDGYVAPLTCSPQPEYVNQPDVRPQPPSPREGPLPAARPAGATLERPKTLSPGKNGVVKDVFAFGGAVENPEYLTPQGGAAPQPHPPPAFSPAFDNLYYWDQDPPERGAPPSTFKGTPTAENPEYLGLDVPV

[8] = molecular target: LIM domain kinase 2 (Homo sapiens) (UniProt P53671)
[9] = molecular target: Mitogen-activated protein kinase kinase kinase 2 (Homo sapiens) (UniProt Q9Y2U5)
[10] = molecular target: Myosin light chain kinase, smooth muscle (Homo sapiens) (UniProt Q15746)
[11] = molecular target: Serine/threonine-protein kinase 38 (Homo sapiens) (UniProt Q15208)
[12] = molecular target: Serine/threonine-protein kinase Nek11 (Homo sapiens) (UniProt Q8NG66)
[13] = molecular target: Phosphatidylinositol 4,5-bisphosphate 3-kinase catalytic subunit gamma isoform (Homo sapiens) (UniProt P48736)
Phosphatidylinositol 4,5-bisphosphate 3-kinase catalytic subunit gamma isoform (Homo sapiens), sequence (P48736 whole entry, looked up, canonical isoform): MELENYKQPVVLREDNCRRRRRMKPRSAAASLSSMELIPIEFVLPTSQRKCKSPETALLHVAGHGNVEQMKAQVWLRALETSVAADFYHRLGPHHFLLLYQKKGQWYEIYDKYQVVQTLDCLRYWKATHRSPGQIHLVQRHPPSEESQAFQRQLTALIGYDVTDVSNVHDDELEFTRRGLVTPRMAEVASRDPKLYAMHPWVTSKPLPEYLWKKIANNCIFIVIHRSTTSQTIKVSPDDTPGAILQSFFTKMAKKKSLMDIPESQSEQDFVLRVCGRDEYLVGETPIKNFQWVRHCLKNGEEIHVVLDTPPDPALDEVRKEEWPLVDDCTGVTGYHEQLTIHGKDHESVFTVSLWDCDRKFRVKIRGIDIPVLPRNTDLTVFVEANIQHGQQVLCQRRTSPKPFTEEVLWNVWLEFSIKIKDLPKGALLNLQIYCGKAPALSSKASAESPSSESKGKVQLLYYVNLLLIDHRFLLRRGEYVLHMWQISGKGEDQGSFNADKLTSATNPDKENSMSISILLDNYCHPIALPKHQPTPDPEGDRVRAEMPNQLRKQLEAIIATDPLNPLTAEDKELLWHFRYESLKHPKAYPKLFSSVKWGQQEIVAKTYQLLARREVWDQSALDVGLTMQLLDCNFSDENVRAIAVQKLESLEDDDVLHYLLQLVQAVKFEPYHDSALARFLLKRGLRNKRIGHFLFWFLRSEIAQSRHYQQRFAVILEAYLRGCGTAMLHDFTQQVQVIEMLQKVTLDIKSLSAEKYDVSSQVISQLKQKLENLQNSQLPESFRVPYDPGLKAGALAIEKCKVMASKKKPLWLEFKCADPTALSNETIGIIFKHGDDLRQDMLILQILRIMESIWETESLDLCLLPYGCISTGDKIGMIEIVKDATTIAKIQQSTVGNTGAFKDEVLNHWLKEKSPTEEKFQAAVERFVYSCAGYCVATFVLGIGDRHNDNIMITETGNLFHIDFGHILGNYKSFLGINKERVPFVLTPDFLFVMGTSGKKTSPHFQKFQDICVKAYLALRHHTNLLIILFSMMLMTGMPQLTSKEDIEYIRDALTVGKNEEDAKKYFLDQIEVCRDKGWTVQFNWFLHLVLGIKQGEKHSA

[14] = molecular target: Protein kinase C epsilon type (Homo sapiens) (UniProt Q02156)
Protein kinase C epsilon type (Homo sapiens), sequence (Q02156 whole entry): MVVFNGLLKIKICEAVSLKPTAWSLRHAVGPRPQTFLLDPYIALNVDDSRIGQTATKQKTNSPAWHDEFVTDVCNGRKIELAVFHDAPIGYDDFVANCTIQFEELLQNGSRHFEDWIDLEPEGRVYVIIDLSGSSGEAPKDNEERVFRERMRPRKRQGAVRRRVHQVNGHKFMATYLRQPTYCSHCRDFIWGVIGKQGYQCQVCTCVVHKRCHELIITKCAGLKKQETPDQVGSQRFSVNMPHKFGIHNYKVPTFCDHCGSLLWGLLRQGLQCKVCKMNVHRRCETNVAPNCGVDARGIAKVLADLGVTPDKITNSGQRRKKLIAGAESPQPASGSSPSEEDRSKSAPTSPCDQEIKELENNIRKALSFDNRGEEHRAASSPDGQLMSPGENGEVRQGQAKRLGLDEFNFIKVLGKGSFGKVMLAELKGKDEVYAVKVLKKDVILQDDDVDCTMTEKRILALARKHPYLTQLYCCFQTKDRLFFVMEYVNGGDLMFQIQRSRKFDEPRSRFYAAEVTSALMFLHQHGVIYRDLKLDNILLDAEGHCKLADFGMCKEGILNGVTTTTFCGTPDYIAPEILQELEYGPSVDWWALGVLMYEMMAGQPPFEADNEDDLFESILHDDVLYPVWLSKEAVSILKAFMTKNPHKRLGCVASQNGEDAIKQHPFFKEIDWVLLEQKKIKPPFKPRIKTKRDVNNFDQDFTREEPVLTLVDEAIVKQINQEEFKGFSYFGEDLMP

[15] = molecular target: Ribosomal protein S6 kinase alpha-6 (Homo sapiens) (UniProt Q9UK32)
[16] = molecular target: Serine/threonine-protein kinase VRK2 (Homo sapiens) (UniProt Q86Y07)
[17] = molecular target: Serine/threonine-protein kinase 32B (Homo sapiens) (UniProt Q9NY57)
[18] = molecular target: 5-hydroxytryptamine receptor 2A (Homo sapiens) (UniProt P28223); conditions: Compound concentration 10.0 uM
[19] = molecular target: 5-hydroxytryptamine receptor 2B (Homo sapiens, UniProt P41595); assay: GPCRScan assay: inhibition of 5-HT2B; design: radioligand conc. used [nm] 1.0 – 2.0, parental cells stable HEK
[20] = molecular target: T1, Serine/threonine-protein kinase TBK1 (Homo sapiens, UniProt Q9UHD2); assay: Biochemical assay (high ATP) with TBK1
T1 sequence (Q9UHD2 whole entry): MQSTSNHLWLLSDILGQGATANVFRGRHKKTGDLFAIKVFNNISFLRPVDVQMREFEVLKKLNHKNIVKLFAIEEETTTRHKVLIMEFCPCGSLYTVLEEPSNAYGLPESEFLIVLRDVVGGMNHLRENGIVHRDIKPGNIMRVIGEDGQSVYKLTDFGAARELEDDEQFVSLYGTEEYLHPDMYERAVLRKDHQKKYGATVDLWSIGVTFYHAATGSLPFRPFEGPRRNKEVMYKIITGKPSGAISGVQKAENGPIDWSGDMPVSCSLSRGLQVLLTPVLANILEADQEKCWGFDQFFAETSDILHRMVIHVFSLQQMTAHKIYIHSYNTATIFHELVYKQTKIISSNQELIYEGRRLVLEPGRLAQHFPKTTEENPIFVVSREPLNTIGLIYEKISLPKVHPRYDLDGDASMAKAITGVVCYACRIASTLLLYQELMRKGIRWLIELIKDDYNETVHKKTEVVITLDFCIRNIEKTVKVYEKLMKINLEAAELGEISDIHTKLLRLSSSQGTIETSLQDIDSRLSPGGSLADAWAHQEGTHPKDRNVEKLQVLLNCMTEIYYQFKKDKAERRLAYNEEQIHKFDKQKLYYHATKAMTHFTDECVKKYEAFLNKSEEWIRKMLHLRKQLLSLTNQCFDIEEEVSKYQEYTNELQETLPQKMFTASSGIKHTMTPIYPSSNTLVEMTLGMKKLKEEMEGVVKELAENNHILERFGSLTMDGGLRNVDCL

[21] = molecular target: Mitogen-activated protein kinase kinase kinase 19 (Homo sapiens, UniProt Q56UN5); assay: NanoBRET with MAP3K19
[22] = molecular target: Serine/threonine-protein kinase 17A (Homo sapiens, UniProt Q9UEE5); assay: NanoBRET with STK17A
[23] = molecular target: Dual specificity mitogen-activated protein kinase kinase 5 (Homo sapiens, UniProt Q13163); assay: NanoBRET with MAP2K5
[24] = molecular target: Receptor-type tyrosine-protein kinase FLT3 (Homo sapiens, UniProt P36888); assay: NanoBRET with FTL3
[25] = molecular target: Sodium-dependent dopamine transporter (Homo sapiens) (UniProt Q01959); conditions: Compound concentration 10.0 uM
[26] = molecular target: GABA-A receptor; anion channel (Rattus norvegicus) (UniProt O09028+P15431+P18506+P18508+P19969+P20236+P23574+P23576+P28471+P28473+P30191+P62813+P63079+P63138+Q91ZM7+Q9ES14); conditions: Compound concentration 10.0 uM
[27] = molecular target: T1, Serine/threonine-protein kinase TBK1; assay: cell-based
[28] = molecular target: Inhibitor of nuclear factor kappa-B kinase subunit epsilon (Homo sapiens, UniProt Q14164); assay: cell-based
[29] = Compound concentration 1000.0 nM
[30] = Compound concentration 100.0 nM

Cyclin-dependent kinase 11A (Homo sapiens), sequence (Q9UQ88 whole entry): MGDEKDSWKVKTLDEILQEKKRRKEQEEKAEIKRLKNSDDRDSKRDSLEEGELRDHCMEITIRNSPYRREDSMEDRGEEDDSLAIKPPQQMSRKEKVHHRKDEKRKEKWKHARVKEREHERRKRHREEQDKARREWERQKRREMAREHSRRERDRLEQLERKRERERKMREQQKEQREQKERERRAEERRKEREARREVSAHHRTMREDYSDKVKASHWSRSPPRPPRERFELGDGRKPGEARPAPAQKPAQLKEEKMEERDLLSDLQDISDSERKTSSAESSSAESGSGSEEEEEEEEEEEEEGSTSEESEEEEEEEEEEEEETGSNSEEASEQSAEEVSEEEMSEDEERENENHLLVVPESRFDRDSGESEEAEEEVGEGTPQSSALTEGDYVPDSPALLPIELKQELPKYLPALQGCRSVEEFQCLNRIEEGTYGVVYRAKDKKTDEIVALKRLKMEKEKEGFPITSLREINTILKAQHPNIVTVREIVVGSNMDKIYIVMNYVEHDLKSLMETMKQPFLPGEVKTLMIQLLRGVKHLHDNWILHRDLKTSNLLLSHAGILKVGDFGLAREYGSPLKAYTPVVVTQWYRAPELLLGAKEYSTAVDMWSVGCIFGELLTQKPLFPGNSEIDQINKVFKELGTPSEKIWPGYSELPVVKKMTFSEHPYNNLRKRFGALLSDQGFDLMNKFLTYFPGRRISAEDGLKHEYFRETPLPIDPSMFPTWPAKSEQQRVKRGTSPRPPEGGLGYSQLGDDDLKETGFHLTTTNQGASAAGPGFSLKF

**Q.** How did the residual activity [1, 29] turn out when `CN(C)c1ncnc(-c2ccc3nc(Nc4cc(CN5CCN(C(=O)CC(F)(F)F)CC5)ccn4)[nH]c3c2)c1Cl` [BAY-440] was run?
**A.** 94%

**Q.** What about the residual activity [2, 29] of the same molecule?
**A.** 100%

**Q.** What about the residual activity [3, 29] of the same molecule?
**A.** 100%

**Q.** What about the residual activity [4, 29] of the same molecule?
**A.** 100%

**Q.** What about the residual activity [5, 29] of the same molecule?
**A.** 71%

**Q.** And the residual activity [6, 29]?
**A.** 92%

**Q.** And the residual activity [7, 29]?
**A.** 87%

**Q.** And the residual activity [8, 29]?
**A.** 100%

**Q.** And the residual activity [9, 29]?
**A.** 78%

**Q.** And the residual activity [10, 29]?
**A.** 68%

**Q.** What about the residual activity [11, 29] of the same molecule?
**A.** 80%

**Q.** What about the residual activity [12, 29] of the same molecule?
**A.** 55%

**Q.** And the residual activity [13, 29]?
**A.** 100%

**Q.** And the residual activity [14, 29]?
**A.** 100%

**Q.** And the residual activity [15, 29]?
**A.** 84%

**Q.** And the residual activity [16, 29]?
**A.** 88%

**Q.** What about the residual activity [17, 29] of the same molecule?
**A.** 100%

**Q.** And the inhibition [18]?
**A.** -4.19%

**Q.** What does the source list for `C[C@H](c1ccnc(Nc2nc3ccc(-c4cc(N(C)C)ncn4)cc3[nH]2)c1)N1CCN(C(=O)CC(F)(F)F)CC1` [BAY-985]?
**A.** Ki ([19]; read-out: Ki): 1310 nM; Ki ([19]; read-out: pKi (converted)): 1290 nM; IC50 [20]: 18 nM (active); IC50 [21]: > 20000 nM (not active); IC50 [22]: > 20000 nM (not active); IC50 [23]: > 20000 nM (not active); IC50 [24]: > 20000 nM (not active); residual activity [1, 30]: 100%; residual activity [2, 30]: 89%; residual activity [3, 30]: 84%; residual activity [4, 30]: 100%; residual activity [5, 30]: 90%; residual activity [6, 30]: 100%; residual activity [7, 30]: 100%; residual activity [8, 30]: 88%; residual activity [9, 30]: 100%; residual activity [10, 30]: 100%; residual activity [11, 30]: 100%; residual activity [12, 30]: 96%; residual activity [13, 30]: 100%; residual activity [14, 30]: 96%; residual activity [15, 30]: 97%; residual activity [16, 30]: 94%; residual activity [17, 30]: 100%; inhibition [25]: 30.5%; inhibition [26]: 23%; IC50 [27]: 312 nM (active); IC50 [28]: 1730 nM (active)
